# Test results reported in publication PMC2151541 (The Journal of General Physiology, 2006).
# Molecular target: muscle acetylcholine nicotinic receptor (AChR), adult mouse muscle, wild type (Mus musculus, UniProt P02716+P04756+P09690+P20782)
# Assay: cell-attached single-channel patch clamp
# Format: cell-based
# muscle acetylcholine nicotinic receptor (AChR), adult mouse muscle, wild type, sequence (P02716 25-520): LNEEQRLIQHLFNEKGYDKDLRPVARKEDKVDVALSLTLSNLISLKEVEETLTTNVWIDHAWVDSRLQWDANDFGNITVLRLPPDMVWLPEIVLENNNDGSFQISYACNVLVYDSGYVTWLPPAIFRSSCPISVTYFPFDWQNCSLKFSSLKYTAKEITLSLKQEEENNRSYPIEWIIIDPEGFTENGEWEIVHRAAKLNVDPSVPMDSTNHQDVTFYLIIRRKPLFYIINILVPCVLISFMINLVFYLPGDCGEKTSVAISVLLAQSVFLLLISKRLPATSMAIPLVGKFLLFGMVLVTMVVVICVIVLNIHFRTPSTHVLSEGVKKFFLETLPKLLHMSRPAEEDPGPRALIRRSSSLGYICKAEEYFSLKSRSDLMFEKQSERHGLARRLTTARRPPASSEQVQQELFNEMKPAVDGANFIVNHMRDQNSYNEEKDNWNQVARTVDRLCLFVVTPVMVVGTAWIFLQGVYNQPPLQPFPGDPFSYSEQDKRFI
# muscle acetylcholine nicotinic receptor (AChR), adult mouse muscle, wild type, sequence (P20782 21-493): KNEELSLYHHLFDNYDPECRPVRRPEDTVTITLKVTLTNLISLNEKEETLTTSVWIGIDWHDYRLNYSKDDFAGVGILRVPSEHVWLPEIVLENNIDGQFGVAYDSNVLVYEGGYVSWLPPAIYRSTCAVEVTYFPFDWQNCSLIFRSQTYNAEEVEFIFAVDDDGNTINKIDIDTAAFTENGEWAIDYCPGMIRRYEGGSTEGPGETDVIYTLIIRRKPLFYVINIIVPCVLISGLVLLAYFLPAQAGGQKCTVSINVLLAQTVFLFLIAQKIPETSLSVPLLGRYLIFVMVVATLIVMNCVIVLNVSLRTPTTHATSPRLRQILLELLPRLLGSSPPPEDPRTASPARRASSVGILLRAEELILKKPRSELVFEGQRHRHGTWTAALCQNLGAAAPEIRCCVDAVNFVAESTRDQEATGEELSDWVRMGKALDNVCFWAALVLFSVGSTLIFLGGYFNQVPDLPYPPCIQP
# muscle acetylcholine nicotinic receptor (AChR), adult mouse muscle, wild type, sequence (P04756 21-457): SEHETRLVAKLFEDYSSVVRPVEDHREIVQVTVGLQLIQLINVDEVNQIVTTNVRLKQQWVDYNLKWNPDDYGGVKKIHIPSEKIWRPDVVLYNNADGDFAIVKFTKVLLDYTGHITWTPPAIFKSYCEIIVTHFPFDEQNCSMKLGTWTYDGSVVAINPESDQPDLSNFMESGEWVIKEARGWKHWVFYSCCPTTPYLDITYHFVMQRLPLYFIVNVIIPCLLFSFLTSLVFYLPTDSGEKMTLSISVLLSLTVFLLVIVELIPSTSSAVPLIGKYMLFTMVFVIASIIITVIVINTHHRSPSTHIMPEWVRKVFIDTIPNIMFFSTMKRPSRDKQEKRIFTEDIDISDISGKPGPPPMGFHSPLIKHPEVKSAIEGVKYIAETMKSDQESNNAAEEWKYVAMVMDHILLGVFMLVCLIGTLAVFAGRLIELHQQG
# muscle acetylcholine nicotinic receptor (AChR), adult mouse muscle, wild type, sequence (P09690 24-501): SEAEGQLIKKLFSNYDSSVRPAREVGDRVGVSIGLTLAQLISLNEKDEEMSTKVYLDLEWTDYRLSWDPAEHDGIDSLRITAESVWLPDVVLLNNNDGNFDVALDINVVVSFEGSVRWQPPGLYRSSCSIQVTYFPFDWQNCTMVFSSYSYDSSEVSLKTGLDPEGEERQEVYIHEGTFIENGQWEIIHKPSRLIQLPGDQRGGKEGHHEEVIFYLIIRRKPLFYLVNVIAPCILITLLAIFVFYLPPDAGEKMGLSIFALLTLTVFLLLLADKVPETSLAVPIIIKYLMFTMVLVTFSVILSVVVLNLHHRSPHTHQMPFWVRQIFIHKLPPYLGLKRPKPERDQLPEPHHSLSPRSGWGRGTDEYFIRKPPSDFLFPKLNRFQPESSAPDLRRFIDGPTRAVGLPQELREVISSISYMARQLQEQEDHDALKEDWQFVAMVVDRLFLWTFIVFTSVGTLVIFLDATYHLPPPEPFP
smiles,measurement,value
C[N+](C)(C)CCO [choline],Kd,12.5 mM
